Assay results taken from publication PMC10739329, “Correlation of bioactive marker compounds of an orally applied Morus alba root bark extract with toxicity and efficacy in BALB/c mice” (Frontiers in Pharmacology, 2023).
Where “and” joins values, the source holds several entries; their conditions need not be identical. Identical values can stand only once. Like-named read-outs stand apart in the source and are kept apart here.

What was measured:
[1] = UPLC-ESI-MS quantitation of sanggenons C and D in serum and tissue samples, acute toxicity study; assay type: in vivo, BALB/c mice; settings: for concentration at 3 h: BALB/c, mouse, serum, oral; for serum concentration: one (efficacy study) and three (acute toxicity study) hours after the last oral MA60 administration
[2] = MS/MS search for metabolites of sanggenons C and D in serum samples; assay type: in vivo, BALB/c mice
Method: In the present study, concentration of bioactive sanggenons C and D was determined in serum and tissue samples and correlated with the administered the doses of MA60. […] Already during dose finding and acute toxicity studies, a high variation in serum concentrations of the selected marker compounds was detected within all three dose groups (30, 100, and 300 mg/kg). No dose dependency could be observed regarding the serum concentrations. This might be due to i) inhomogeneities in the CMC suspension of the MA60 extract, ii) the inter-individual differences in the resorption of sanggenons, or iii) the formation of sanggenon metabolites: • (i) For oral gavage administration, MA60 was suspended in 0.3% carboxymethyl cellulose (CMC) as vehicle. This is based on literature data, where even a higher dose of up to 400 mg/kg of a 70% EtOH extract of M. alba root bark ([Lim et al., 2013]) was previously administered to mice per gavage feeding. […] In the present study, an MS/MS analysis was conducted to also search for metabolites of the selected marker compounds sanggenon C and sanggenon D. The search included (di)glucuronides and hydroxylated metabolites as well as further conjugates such as sulfated metabolites.

[3] = in vivo; cited from earlier work
[4] = MA60 30 mg/kg oral, samples 26-30 in order, 3 h after last treatment
[5] = MA60 100 mg/kg oral, samples 31-35 in order, 3 h after last treatment
[6] = MA60 300 mg/kg oral, samples 36-40 in order, 3 h after last treatment
[7] = MA60 100 mg/kg oral once daily for seven days, samples 68-71 in order, sacrificed 24 h after last application

For `CC(C)=CC[C@]12Oc3cc(O)c([C@H]4C=C(C)C[C@H](c5ccc(O)cc5O)[C@H]4C(=O)c4ccc(O)cc4O)c(O)c3C(=O)[C@@]1(O)Oc1cc(O)ccc12` [sanggenon C], the “serum concentrations of sanggenon C (group)” value (MA60 100 mg/kg oral, after 24 h (#68-#71), below this value or not detectable) was “below 2.77 ng/mL”, the concentration at 3 h ([1]; 30 mg/kg, MA60 30 mg/kg oral once daily 7 days, 3 h after last treatment, read-out: amount of sanggenon C in serum (dose group)) was less than 9.1 ng/mL and the concentration at 3 h ([1]; 30 mg/kg, MA60 30 mg/kg oral, samples 26-30 in order, 3 h after last treatment, read-out: quantified amount of sanggenon C serum, individual samples) was 4.97 ng/mL. For the same compound, the concentration at 3 h ([1]; 100 mg/kg, MA60 100 mg/kg oral once daily 7 days, 3 h after last treatment, read-out: amount of sanggenon C in serum (dose group)) was 7.94 to 31.5 ng/mL, the concentration at 3 h ([1]; 300 mg/kg, MA60 300 mg/kg oral once daily 7 days, 3 h after last treatment, read-out: amount of sanggenon C in serum (dose group)) was 21.2 to 227 ng/mL and the concentration at 3 h ([1]; mice sacrificed 3 hours after the last application, read-out: average serum concentration of sanggenon C) was less than 2 ng/mL. The “quantified amount of sanggenon C serum, individual samples” value (“quantified amount of sanggenon C serum” for short) [1, 4] was “n.f. (3×) and 9.10 ng/mL”, the “quantified amount of sanggenon C serum” value [1, 5] was 7.94 ng/mL and 9.28 ng/mL and 31.53 ng/mL and 11.17 ng/mL and 13.02 ng/mL and the “quantified amount of sanggenon C serum” value [1, 6] was 25.74 ng/mL and 21.21 ng/mL and 227.26 ng/mL and 24.13 ng/mL and 103.00 ng/mL. The serum concentration [1] was “less than 1%” and the “metabolites ((di)glucuronides, hydroxylated, sulfated conjugates) in serum samples” value ([2]; mouse, in vivo, po) was “neither the corresponding masses nor the phase-II-conjugates could be detected”.
In the case of sanggenon D, the “quantified amount of sanggenon D liver, individual samples” value (shortened to “quantified amount of sanggenon D liver”) [7] is reported as “n.f”, the “quantified amount of sanggenon D lung, individual samples” value (shortened to “quantified amount of sanggenon D lung”) [7] is reported as “n.f” and the “sanggenon D in liver” value (MA60 100 mg/kg oral, after 24 h) is reported as “could not be determined”. The “sanggenon D in liver” value (MA60 100 mg/kg oral, mice sacrificed after 1 h) was “high amount”, the “quantified amount of sanggenon D lung” value (MA60 100 mg/kg oral, samples 64-67 in order, sacrificed 1 h after treatment) was “n.f” and the “quantified amount of sanggenon D liver” value [1, 4] was “n.f”. For the same compound, the “quantified amount of sanggenon D lung” value [1, 4] was “n.f. (4×) and 1,005.12 ng/mL”, the “quantified amount of sanggenon D liver” value [1, 5] was “n.f. and 34.18 ng/mL and 26.97 ng/mL” and the “quantified amount of sanggenon D lung” value [1, 5] was “n.f. (2×) and 2,980.27 ng/mL and 343.27 ng/mL and 10,306.71 ng/mL”. The “quantified amount of sanggenon D liver” value [1, 6] was 70.13 ng/mL and 89.18 ng/mL and 979.27 ng/mL and 996.87 ng/mL and 447.53 ng/mL, the “quantified amount of sanggenon D lung” value [1, 6] was “n.f” and the “sanggenon D concentration in liver tissues” value ([1]; high dose group (300 mg/kg), #38 and #39) was roughly 1 µg/mL. The “sanggenon D in liver samples” value ([1]; low dose group (MA60 30 mg/kg oral)) was “not detected”, the serum concentration [1] was “less than 1%” and the “metabolites ((di)glucuronides, hydroxylated, sulfated conjugates) in serum samples” value ([2]; MS/MS analysis after oral MA60) was “neither the corresponding masses nor the phase-II-conjugates could be detected”.
For `C=C(C)[C@H](CC=C(C)C)Cc1c(O)cc(OC)c(C(=O)/C=C/c2ccc(O)cc2O)c1O` [kuraridin], the “metabolites found in rat serum” value [3] is given as “mono- and di-glucuronides as well as hydroxylated derivatives”.
